Results on one molecule are retold here after patent publication US9481635B2, “Process for preparing gabapentin” (ZACH SYSTEM S.P.A., priority 2013, dated 2016).

Entries after “also recorded” stand apart in the source; their conditions may differ.

Series [1] in a line: Solubility of gabapentin in anhydrous extraction solvents. In kind it is physicochemical. An excerpt:
Thus, the solution of gabapentin in cresol after extraction may be anhydrified, for example, by distillation so as to crystallize the undesired residual salts leaving the gabapentin itself in solution. Said solution of gabapentin in cresol obtained from the removal of the salts by filtration and/or by contro-extraction with water has a chloride content of a few tens of ppm.
The same technique cannot be applied to the corresponding solution in n-butanol of the prior art, since the solubility of gabapentin in the anhydrous solvent is very low; as a result the butanolic solution of gabapentin extraction from the Hofmann end solution, when subjected to anhydrification reaction, leads to the co-precipitation of gabapentin and of these same salts, thus, with no advantage from the point of view of product purity.

For series [2] the following is noted: as stated for U.S. Pat. No. 6,518,456; cited from earlier work.

On to `NCC1(CC(=O)O)CCCCC1` [gabapentin, 1-(aminomethyl)-cyclohexaneacetic acid], for which the solubility result in series [1] (in anhydrous cresol) is listed as “about 20%”; in series [1] (in anhydrous n-butanol), “virtually zero; also recorded: very low”. Moreover, the “isoelectric point (pH)” value in series [2] was 7.2 pH.
